Reference: patent publication EP0584797A2, “Novel cephalosporin compounds and processes for the preparation thereof” (LUCKY LTD., priority 1992, dated 1994)
≈ marks a conversion by molar mass, not a printed value.

Key:
Assay in all cases: minimal inhibitory concentration, two-fold agar dilution
Format in all cases: cell-based
[1] = system: Acinetobacter calcoaceticus ATCC 15437; conditions: ATCC15437, Muller-Hinton agar, 37°C, 20 hours, read-out: MIC values against the standard strains
In short: (§1)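 Compounds were serially diluted two-fold into Mueller-Hinton agar, and each plate was spot-inoculated with the test strain at 10⁷ CFU per ml. Plates were incubated at 37°C for 20 hours before MIC values were read.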

[2] = system: Bacillus cereus ATCC 11778; conditions: ATCC11778, Muller-Hinton agar, 37°C, 20 hours, read-out: MIC values against the standard strains
In short: as §1

[3] = system: Bacillus megaterium ATCC 9885; conditions: Priestia megaterium, ATCC9885; Muller-Hinton agar; 37°C; 20 hours; read-out: MIC values against the standard strains
In short: as §1

[4] = system: Citrobacter freundii ATCC 8090; conditions: ATCC8090, Muller-Hinton agar, 37°C, 20 hours, read-out: MIC values against the standard strains
In short: as §1

[5] = system: Enterobacter aerogenes ATCC 29751; conditions: Klebsiella aerogenes, ATCC29751; Muller-Hinton agar; 37°C; 20 hours; read-out: MIC values against the standard strains
In short: as §1

[6] = system: Enterobacter cloacae ATCC 27508; conditions: ATCC27508, Muller-Hinton agar, 37°C, 20 hours, read-out: MIC values against the standard strains
In short: as §1

[7] = system: Escherichia coli ATCC 10536; conditions: ATCC10536, Muller-Hinton agar, 37°C, 20 hours, read-out: MIC values against the standard strains
In short: as §1

[8] = system: Escherichia coli ATCC 25922; conditions: ATCC25922, Muller-Hinton agar, 37°C, 20 hours, read-out: MIC values against the standard strains
In short: as §1

[9] = system: Klebsiella pneumoniae ATCC 10031; conditions: ATCC10031, Muller-Hinton agar, 37°C, 20 hours, read-out: MIC values against the standard strains
In short: as §1

[10] = system: Micrococcus luteus ATCC 9341; conditions: ATCC9341, Muller-Hinton agar, 37°C, 20 hours, read-out: MIC values against the standard strains
In short: as §1

[11] = system: Morganella morganii ATCC 8076h; conditions: ATCC8076H, Muller-Hinton agar, 37°C, 20 hours, read-out: MIC values against the standard strains
In short: as §1

[12] = system: Proteus mirabilis ATCC 25933; conditions: ATCC25933, Muller-Hinton agar, 37°C, 20 hours, read-out: MIC values against the standard strains
In short: as §1

[13] = system: Proteus vulgaris ATCC 6059; conditions: ATCC6059, Muller-Hinton agar, 37°C, 20 hours, read-out: MIC values against the standard strains
In short: as §1

[14] = system: Providencia rettgeri ATCC 9250; conditions: ATCC9250, Muller-Hinton agar, 37°C, 20 hours, read-out: MIC values against the standard strains
In short: as §1

[15] = system: Pseudomonas aeruginosa ATCC 10145; conditions: ATCC10145, Muller-Hinton agar, 37°C, 20 hours, read-out: MIC values against the standard strains
In short: as §1

[16] = system: Pseudomonas aeruginosa ATCC 25619; conditions: ATCC25619, Muller-Hinton agar, 37°C, 20 hours, read-out: MIC values against the standard strains
In short: as §1

[17] = system: Pseudomonas aeruginosa ATCC 27853; conditions: ATCC27853, Muller-Hinton agar, 37°C, 20 hours, read-out: MIC values against the standard strains
In short: as §1

[18] = system: Salmonella typhimurium ATCC 14028; conditions: Salmonella enterica; Muller-Hinton agar; 37°C; 20 hours; read-out: MIC values against the standard strains
In short: as §1

[19] = system: Serratia marcescens ATCC 27117; conditions: ATCC27117, Muller-Hinton agar, 37°C, 20 hours, read-out: MIC values against the standard strains
In short: as §1

[20] = system: Shigella flexneri ATCC 11836; conditions: ATCC11836, Muller-Hinton agar, 37°C, 20 hours, read-out: MIC values against the standard strains
In short: as §1

[21] = system: Shigella sonnei ATCC 11060; conditions: ATCC11060, Muller-Hinton agar, 37°C, 20 hours, read-out: MIC values against the standard strains
In short: as §1

[22] = system: Staphylococcus aureus ATCC 10537; conditions: ATCC10537, Muller-Hinton agar, 37°C, 20 hours, read-out: MIC values against the standard strains
In short: as §1

[23] = system: Staphylococcus aureus ATCC 6538p; conditions: ATCC6538P, Muller-Hinton agar, 37°C, 20 hours, read-out: MIC values against the standard strains
In short: as §1

[24] = system: Staphylococcus epidermidis ATCC 12228; conditions: ATCC12228, Muller-Hinton agar, 37°C, 20 hours, read-out: MIC values against the standard strains
In short: as §1

[25] = system: Streptococcus faecalis ATCC 29212; conditions: Enterococcus faecalis, ATCC29212; Muller-Hinton agar; 37°C; 20 hours; read-out: MIC values against the standard strains
In short: as §1

| SMILES | MIC [1] | MIC [2] | MIC [3] | MIC [4] | MIC [5] | MIC [6] | MIC [7] | MIC [8] | MIC [9] | MIC [10] | MIC [11] | MIC [12] | MIC [13] | MIC [14] | MIC [15] | MIC [16] | MIC [17] | MIC [18] | MIC [19] | MIC [20] | other results |
| --- | --- | --- | --- | --- | --- | --- | --- | --- | --- | --- | --- | --- | --- | --- | --- | --- | --- | --- | --- | --- | --- |
| C[n+]1ccc(N)nc1SCC1=C(C(=O)[O-])N2C(=O)[C@@H](NC(=O)/C(=N\O)c3csc(N)n3)[C@H]2SC1 [Example 10, 7-[(Z)-2-(2-aminothiazol-4-yl)-2-oxyiminoacetamido]-3-(4-amino-1-methylpyrimidinium-2-yl)thiomethyl-3-cephem-4-carboxylate] | 0.063 µg/mL (≈ 0.121 µM) | 32 µg/mL (≈ 61.2 µM) | 0.13 µg/mL (≈ 0.249 µM) | 0.063 µg/mL (≈ 0.121 µM) | 0.063 µg/mL (≈ 0.121 µM) | 0.016 µg/mL (≈ 0.0306 µM) | 0.25 µg/mL (≈ 0.478 µM) | 0.25 µg/mL (≈ 0.478 µM) | 0.25 µg/mL (≈ 0.478 µM) | 0.25 µg/mL (≈ 0.478 µM) | 0.016 µg/mL (≈ 0.0306 µM) | 0.25 µg/mL (≈ 0.478 µM) | 1 µg/mL (≈ 1.91 µM) | ≤ 0.008 µg/mL | > 128 µg/mL | 128 µg/mL (≈ 245 µM) | > 128 µg/mL | 0.5 µg/mL (≈ 0.957 µM) | 0.5 µg/mL (≈ 0.957 µM) | 0.016 µg/mL (≈ 0.0306 µM) | MIC [21]: 1 µg/mL (≈ 1.91 µM); MIC [22]: 0.25 µg/mL (≈ 0.478 µM); MIC [23]: 0.5 µg/mL (≈ 0.957 µM); MIC [24]: 0.063 µg/mL (≈ 0.121 µM); MIC [25]: 8 µg/mL (≈ 15.3 µM) |
| C[n+]1c(SCC2=C(C(=O)[O-])N3C(=O)[C@@H](NC(=O)/C(=N\OC(C)(C)C(=O)O)c4csc(N)n4)[C@H]3SC2)nc(N)c(N)c1N [Example 1] | 8 µg/mL (≈ 12.5 µM) | 128 µg/mL (≈ 200 µM) | 0.25 µg/mL (≈ 0.391 µM) | 0.13 µg/mL (≈ 0.204 µM) | 2 µg/mL (≈ 3.13 µM) | 0.016 µg/mL (≈ 0.0251 µM) | 0.13 µg/mL (≈ 0.204 µM) | 0.063 µg/mL (≈ 0.0986 µM) | 0.063 µg/mL (≈ 0.0986 µM) | 0.25 µg/mL (≈ 0.391 µM) | ≤ 0.008 µg/mL | 0.063 µg/mL (≈ 0.0986 µM) | 0.063 µg/mL (≈ 0.0986 µM) | ≤ 0.008 µg/mL | 2 µg/mL (≈ 3.13 µM) | 1 µg/mL (≈ 1.57 µM) | 1 µg/mL (≈ 1.57 µM) | 0.25 µg/mL (≈ 0.391 µM) | 0.25 µg/mL (≈ 0.391 µM) | 0.031 µg/mL (≈ 0.0485 µM) | MIC [21]: 0.13 µg/mL (≈ 0.204 µM); MIC [22]: 2 µg/mL (≈ 3.13 µM); MIC [23]: 8 µg/mL (≈ 12.5 µM); MIC [24]: 2 µg/mL (≈ 3.13 µM); MIC [25]: > 128 µg/mL |
| CCO/N=C(\C(=O)N[C@@H]1C(=O)N2C(C(=O)[O-])=C(CSc3nc(N)c(N)c(N)[n+]3CC)CS[C@H]12)c1csc(N)n1 [Example 13, 7-[(Z)-2-(2-aminothiazol-4-yl)-2-(ethoxyimino)acetamido]-3-(4,5,6-triamino-1-ethylpyrimidinium-2-yl)thiomethyl-3-cephem-4-carboxylate] | 16 µg/mL (≈ 26.9 µM) | 64 µg/mL (≈ 108 µM) | 0.13 µg/mL (≈ 0.219 µM) | 0.5 µg/mL (≈ 0.841 µM) | 2 µg/mL (≈ 3.36 µM) | 0.016 µg/mL (≈ 0.0269 µM) | 0.063 µg/mL (≈ 0.106 µM) | 0.063 µg/mL (≈ 0.106 µM) | 0.13 µg/mL (≈ 0.219 µM) | 0.13 µg/mL (≈ 0.219 µM) | 0.13 µg/mL (≈ 0.219 µM) | 2 µg/mL (≈ 3.36 µM) | 2 µg/mL (≈ 3.36 µM) | 0.13 µg/mL (≈ 0.219 µM) | 64 µg/mL (≈ 108 µM) | 8 µg/mL (≈ 13.5 µM) | 32 µg/mL (≈ 53.8 µM) | 1 µg/mL (≈ 1.68 µM) | 1 µg/mL (≈ 1.68 µM) | 0.5 µg/mL (≈ 0.841 µM) | MIC [21]: 0.5 µg/mL (≈ 0.841 µM); MIC [22]: 0.25 µg/mL (≈ 0.42 µM); MIC [23]: 0.5 µg/mL (≈ 0.841 µM); MIC [24]: 0.13 µg/mL (≈ 0.219 µM); MIC [25]: > 128 µg/mL |
| CCO/N=C(\C(=O)N[C@@H]1C(=O)N2C(C(=O)[O-])=C(CSc3nc(N)c(N)c(N)[n+]3C)CS[C@H]12)c1nsc(N)n1 [Example 5] | 2 µg/mL (≈ 3.44 µM) | 16 µg/mL (≈ 27.5 µM) | 0.063 µg/mL (≈ 0.108 µM) | 0.13 µg/mL (≈ 0.223 µM) | 0.016 µg/mL (≈ 0.0275 µM) | 0.13 µg/mL (≈ 0.223 µM) | 0.063 µg/mL (≈ 0.108 µM) | 0.063 µg/mL (≈ 0.108 µM) | 0.016 µg/mL (≈ 0.0275 µM) | 0.031 µg/mL (≈ 0.0533 µM) | ≤ 0.008 µg/mL | 0.5 µg/mL (≈ 0.86 µM) | 0.5 µg/mL (≈ 0.86 µM) | ≤ 0.008 µg/mL | 4 µg/mL (≈ 6.88 µM) | 0.5 µg/mL (≈ 0.86 µM) | 2 µg/mL (≈ 3.44 µM) | 0.25 µg/mL (≈ 0.43 µM) | 0.25 µg/mL (≈ 0.43 µM) | 0.031 µg/mL (≈ 0.0533 µM) | MIC [21]: 0.25 µg/mL (≈ 0.43 µM); MIC [22]: 0.25 µg/mL (≈ 0.43 µM); MIC [23]: 0.5 µg/mL (≈ 0.86 µM); MIC [24]: 0.25 µg/mL (≈ 0.43 µM); MIC [25]: 32 µg/mL (≈ 55 µM) |
| CCO/N=C(\C(=O)N[C@@H]1C(=O)N2C(C(=O)[O-])=C(CSc3nc(N)cc[n+]3C)CS[C@H]12)c1csc(N)n1 [Example 4, 7-[(Z)-2-(aminothiazol-4-yl)-2-(ethoxyimino)acetamido]-3-(4-amino-1-methylpyrimidinium-2-yl)thiomethyl-3-cephem-4-carboxylate] | 8 µg/mL (≈ 14.5 µM) | 32 µg/mL (≈ 58.1 µM) | 0.13 µg/mL (≈ 0.236 µM) | 0.063 µg/mL (≈ 0.114 µM) | 0.25 µg/mL (≈ 0.454 µM) | ≤ 0.008 µg/mL | 0.063 µg/mL (≈ 0.114 µM) | 0.063 µg/mL (≈ 0.114 µM) | ≤ 0.008 µg/mL | 0.063 µg/mL (≈ 0.114 µM) | ≤ 0.008 µg/mL | 0.5 µg/mL (≈ 0.908 µM) | 0.5 µg/mL (≈ 0.908 µM) | ≤ 0.008 µg/mL | 16 µg/mL (≈ 29.1 µM) | 1 µg/mL (≈ 1.82 µM) | 8 µg/mL (≈ 14.5 µM) | 0.25 µg/mL (≈ 0.454 µM) | 0.25 µg/mL (≈ 0.454 µM) | 0.031 µg/mL (≈ 0.0563 µM) | MIC [21]: 0.25 µg/mL (≈ 0.454 µM); MIC [22]: 0.25 µg/mL (≈ 0.454 µM); MIC [23]: 0.5 µg/mL (≈ 0.908 µM); MIC [24]: 0.13 µg/mL (≈ 0.236 µM); MIC [25]: 64 µg/mL (≈ 116 µM) |
